Reference: publication PMC4896453 (PLoS ONE, 2016)
“Also recorded” adds a separate entry of the source. Where two headings read alike, the source gives them in different places.

Tests used:
[1] = molecular target: T1, human NOP receptor (NOP-RLuc/β-arrestin 2-RGFP) (Homo sapiens, UniProt P41146); test: BRET NOP-RLuc/β-arrestin 2-RGFP interaction, HEK-293 cells; assay type: cell-based; details: BRET, HEK-293 cells, room temperature; at least 4 experiments in duplicate
T1 construct: expressed in transfected cells; host or cells: HEK-293 (retroviral expression; whole cells)

[2] = tested on: rats; test: Rota-rod test after intrathecal infusion; assay type: in vivo, rat; details: same range of doses (0.1–1 nmol), data not shown
Method: For all the experiments described below, male Sprague-Dawley rats (Harlan, Varese, Italy), weighing approximately 280-300g at the beginning of the experimental procedure, were used. Animals were housed in CeSAL (Centro Stabulazione Animali da Laboratorio, University of Florence) and used at least one week after their arrival. One rat was housed per cage (size 26x41 cm); animals were fed with standard laboratory diet and tap water ad libitum, and kept at 23±1°C with a 12 h light/dark cycle, light at 7 a.m. […] All animals were monitored daily using a scoring system (based on: Appearance, Food and Water Intake, Clinical Signs, Natural Behaviour and Provoked Behaviour. Maximum score is 20 and animals reaching 10 are euthanized. In the experiments reported here no animals reached this score and none died before the end of the experiment) and at the end of the experiment were euthanized by CO2 overdose. […]
Rota-rod apparatus (Ugo Basile, Varese, Italy) consisted of a base platform and a rotating rod with a diameter of 6 cm and a non-slippery surface. […] The integrity of motor coordination was assessed on the basis of the number of falls from the rod in 60s measured 15, 30, 45, 60, 90, 120 and 180 min after treatments.

[3] = molecular target: human NOP receptor (NOP-RLuc/Gβ1-RGFP) (Homo sapiens, UniProt P41146); test: biochemical; assay type: biochemical
[4] = molecular target: T2, human NOP receptor (Homo sapiens, UniProt P41146); test: Calcium mobilisation, CHO cells with NOP and Gαqi5; assay type: cell-based; details: calcium mobilisation, CHO cells with human NOP and Gαqi5, Fluo-4 AM, 37°C; at least 3 experiments in duplicate
T2 construct: expressed in transfected cells; host or cells: CHO

[5] = molecular target: T3, human Mu receptor (Homo sapiens, UniProt P35372); test: Calcium mobilisation, CHO cells with Mu and Gαqi5; assay type: cell-based; details: calcium mobilisation, at least 3 experiments in duplicate
T3 construct: expressed in transfected cells; host or cells: CHO

[6] = tested on: monkey; details: monkey tail withdraw assay; cited from earlier work
[7] = molecular target: T4, human Mu receptor (Mu-RLuc/β-arrestin 2-RGFP) (Homo sapiens, UniProt P35372); test: BRET Mu-RLuc/β-arrestin 2-RGFP interaction, SH-SY5Y cells; assay type: cell-based; details: BRET, SH-SY5Y cells, room temperature; at least 4 experiments in duplicate
T4 construct: expressed in transfected cells; host or cells: SH-SY5Y (retroviral expression; whole cells)

[8] = molecular target: T5, Mu receptor (CHOhMu cells) (Homo sapiens, UniProt P35372); test: cAMP assay, forskolin-stimulated CHOhMu whole cells; assay type: cell-based; details: forskolin 1μM, mean (±SEM)
T5 construct: expressed in transfected cells; host or cells: CHO (Chinese Hamster Ovary)
Method: (§1) CHOhMu and CHOhNOP whole cells were suspended in Krebs/HEPES buffer, containing isobutylmethylxanthine (1mM) and forskolin (1μM).

[9] = molecular target: T6, NOP receptor (CHOhNOP cells) (Homo sapiens, UniProt P41146); test: cAMP assay, forskolin-stimulated CHOhNOP whole cells; assay type: cell-based; details: forskolin 1μM, mean (±SEM)
T6 construct: expressed in transfected cells; host or cells: CHO (Chinese Hamster Ovary)
Method: as §1

[10] = tested on: rat; details: in vivo; cited from earlier work
[11] = tested on: electrically stimulated guinea pig ileum; test: Electrically stimulated guinea pig ileum bioassay; details: for Kb: Cavia porcellus
Method: With approval of Animal Subjects Review Board of the University of Ferrara and from the Italian Ministry of Health (PROT-186) ileum tissues were taken from male albino guinea pigs of 350–400 g (Pampaloni, Pisa, Italy). The animals were treated in accordance with European guidelines (86/609/ECC) and national regulations (DL 116/92). They were housed in 560 x 320 x 180 mm cages (Techinplast), three per cage, under standard conditions (22°C, 55% humidity, 12 h light/dark cycle, light on at 7:00 h) with food (complete feed for guinea pig, Mucedola, Milano, Italy) and water ad libitum. The day of the experiment the animals were killed with an isofluorane overdose. Bioassay experiments were performed as previously described. The tissues were suspended in 5 ml organ baths containing Krebs solution (composition in mM: NaCl 118.5, KCl 4.7, MgSO4 1.2, KH2PO4 1.2, NaHCO3 25, CaCl2 1.8, glucose 10), hexamethonium bromide 22 μM, benadril 0.34 μM and oxygenated with 95% O2 and 5% CO2. The temperature was set at 37°C. At resting tension, 1 g was applied to the tissues. Tissues were stimulated through two platinum electrodes with a supramaximal rectangular pulse of 1 ms duration, 0.05 Hz frequency, 80V amplitude. Electrically evoked contractions were measured isotonically by means of Basile strain gauge transducers (Basile 7006; srl Ugo Basile, Varese, Italy) and recorded with a computer–based acquisition system (Power Lab 8, ADInstruments, USA). After an equilibration period of about 60 min, the contractions induced by electrical field stimulation were stable. At this time, cumulative concentration response curves to agonists were constructed (0.5 log unit steps). Antagonists were injected into the baths 15 minutes before constructing agonist concentration response curves.
Data are expressed as mean±SEM or with confidence intervals as appropriate. For more than 2 groups, data are analysed using ANOVA with post-hoc testing using Dunnett’s or Bonferroni’s test as appropriate. Where there are only 2 groups paired or unpaired t-tests were used. P values of less than 0.05 were considered significant. All curve fitting was accomplished using Graphpad-Prism (V6). […] In gpI experiments the antagonist potency (pKb) is calculated from the rightward shift of the agonist concentration response curve by a fixed antagonist concentration.

[12] = antagonist 15 minutes before agonist curve, from rightward shift, read-out: antagonist potency pKb against DeNo (converted)

T3 sequence (P35372 whole entry): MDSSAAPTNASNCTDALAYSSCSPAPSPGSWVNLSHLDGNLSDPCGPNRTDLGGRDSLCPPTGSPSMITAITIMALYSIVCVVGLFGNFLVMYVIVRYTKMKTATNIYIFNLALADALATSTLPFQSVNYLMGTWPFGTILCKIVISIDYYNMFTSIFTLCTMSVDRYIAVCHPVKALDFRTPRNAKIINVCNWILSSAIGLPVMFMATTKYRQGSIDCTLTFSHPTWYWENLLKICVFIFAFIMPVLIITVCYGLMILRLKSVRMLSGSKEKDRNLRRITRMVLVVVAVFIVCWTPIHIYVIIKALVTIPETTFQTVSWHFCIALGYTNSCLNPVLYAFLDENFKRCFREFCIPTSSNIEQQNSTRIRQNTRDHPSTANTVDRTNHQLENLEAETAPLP
Sequence of human NOP receptor (NOP-RLuc/Gβ1-RGFP) (P41146 whole entry, looked up): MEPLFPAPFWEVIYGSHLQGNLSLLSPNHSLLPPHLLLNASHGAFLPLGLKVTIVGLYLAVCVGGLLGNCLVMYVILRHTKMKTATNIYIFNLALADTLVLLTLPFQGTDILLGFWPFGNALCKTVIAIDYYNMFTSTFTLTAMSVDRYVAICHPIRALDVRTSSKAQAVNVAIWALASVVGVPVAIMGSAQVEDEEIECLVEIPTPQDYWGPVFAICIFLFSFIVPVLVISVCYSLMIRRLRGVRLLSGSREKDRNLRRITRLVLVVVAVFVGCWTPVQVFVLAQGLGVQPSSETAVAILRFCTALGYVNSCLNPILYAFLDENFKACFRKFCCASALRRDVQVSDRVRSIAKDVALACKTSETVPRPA
T2 sequence (P41146 whole entry): as the sequence (P41146 whole entry, looked up) above
T6 sequence (P41146 whole entry): as the sequence (P41146 whole entry, looked up) above
T1 sequence (P41146+P27652 fused): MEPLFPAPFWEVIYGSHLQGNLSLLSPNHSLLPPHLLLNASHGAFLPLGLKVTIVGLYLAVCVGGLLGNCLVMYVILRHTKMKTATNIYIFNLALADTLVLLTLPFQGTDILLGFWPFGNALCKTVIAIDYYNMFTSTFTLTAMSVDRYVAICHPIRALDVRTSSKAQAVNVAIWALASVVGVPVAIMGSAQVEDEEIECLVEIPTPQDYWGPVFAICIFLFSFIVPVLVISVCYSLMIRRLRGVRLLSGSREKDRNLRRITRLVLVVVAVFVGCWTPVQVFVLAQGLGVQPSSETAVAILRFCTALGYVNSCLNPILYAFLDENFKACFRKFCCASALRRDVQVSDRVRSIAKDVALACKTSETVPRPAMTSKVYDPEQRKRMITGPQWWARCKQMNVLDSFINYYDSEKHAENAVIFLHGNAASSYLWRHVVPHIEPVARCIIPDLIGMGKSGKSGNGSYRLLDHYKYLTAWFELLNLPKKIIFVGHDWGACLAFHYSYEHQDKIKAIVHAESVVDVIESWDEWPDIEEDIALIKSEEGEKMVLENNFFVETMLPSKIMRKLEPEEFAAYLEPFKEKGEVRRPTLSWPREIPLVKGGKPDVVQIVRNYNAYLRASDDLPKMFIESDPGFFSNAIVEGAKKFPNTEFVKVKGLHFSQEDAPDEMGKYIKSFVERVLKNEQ
T1 sequence (P32121 whole entry partner): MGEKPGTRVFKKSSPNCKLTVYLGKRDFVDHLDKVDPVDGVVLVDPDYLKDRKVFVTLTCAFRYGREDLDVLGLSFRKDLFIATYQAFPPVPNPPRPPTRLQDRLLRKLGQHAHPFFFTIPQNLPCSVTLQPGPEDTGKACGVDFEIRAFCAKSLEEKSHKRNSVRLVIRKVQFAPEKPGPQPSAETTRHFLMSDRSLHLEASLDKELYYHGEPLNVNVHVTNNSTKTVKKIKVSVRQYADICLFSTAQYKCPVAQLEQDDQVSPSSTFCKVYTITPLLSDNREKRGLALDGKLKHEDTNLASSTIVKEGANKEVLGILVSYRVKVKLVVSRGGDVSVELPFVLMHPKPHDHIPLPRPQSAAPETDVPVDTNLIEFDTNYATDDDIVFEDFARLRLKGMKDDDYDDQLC
T4 sequence (P35372+P27652 fused): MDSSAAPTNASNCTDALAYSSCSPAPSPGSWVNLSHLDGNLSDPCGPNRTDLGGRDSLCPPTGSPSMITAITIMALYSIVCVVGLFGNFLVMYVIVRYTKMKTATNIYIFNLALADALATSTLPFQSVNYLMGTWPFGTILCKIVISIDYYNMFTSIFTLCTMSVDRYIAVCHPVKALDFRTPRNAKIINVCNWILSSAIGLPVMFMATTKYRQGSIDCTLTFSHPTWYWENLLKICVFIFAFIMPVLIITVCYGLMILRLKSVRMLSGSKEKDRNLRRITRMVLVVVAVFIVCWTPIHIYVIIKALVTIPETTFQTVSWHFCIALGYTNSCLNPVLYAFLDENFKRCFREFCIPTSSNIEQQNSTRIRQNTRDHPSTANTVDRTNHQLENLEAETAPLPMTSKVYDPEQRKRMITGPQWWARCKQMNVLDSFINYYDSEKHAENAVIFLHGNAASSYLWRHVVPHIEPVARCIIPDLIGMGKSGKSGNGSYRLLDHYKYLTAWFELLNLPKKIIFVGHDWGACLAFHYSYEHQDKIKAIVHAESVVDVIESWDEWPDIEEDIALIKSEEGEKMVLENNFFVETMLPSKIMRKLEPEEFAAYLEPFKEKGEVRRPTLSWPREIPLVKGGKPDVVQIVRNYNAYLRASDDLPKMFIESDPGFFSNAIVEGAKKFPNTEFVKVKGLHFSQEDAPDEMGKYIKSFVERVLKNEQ
T4 sequence (P32121 whole entry partner): as the sequence (P32121 whole entry partner) above
T5 sequence (P35372 whole entry): as the sequence (P35372 whole entry) above

## C[C@@H](NC(=O)[C@@H](N)Cc1ccc(O)cc1)C(=O)N[C@@H](Cc1ccccc1)C(=O)NCC(=O)N[C@@H](Cc1ccc(O)cc1)C(=O)N1CCC[C@H]1C(=O)N[C@@H](CO)C(N)=O [dermorphin]
[1]
  β-arrestin 2 NOP pEC50 (CL95%): completely inactive
[2]
  animal performance in the rotarod test: impaired animal performance in the rotarod test
[3]
  Gβ1-protein NOP pEC50(CL95%): very weak only increasing BRET ratio at micromolar concentrations; also recorded: crc incomplete
[4]
  NOP pEC50 (CL95%): crc incomplete
[5]; % over basal fluorescence, CHO cells with human Mu and Gαqi5, SEM
  Emax: 234 ± 14%

## [Dmt^1]N/OFQ(1–13)-NH2
[6]
  increase in potency over N/OFQ: 30 fold

## CC(C)C[C@H](NC(=O)[C@H](CCCCN)NC(=O)[C@H](CCCNC(=N)N)NC(=O)[C@H](C)NC(=O)[C@H](CO)NC(=O)[C@H](CCCCN)NC(=O)[C@H](CCCNC(=N)N)NC(=O)[C@H](C)NC(=O)CNC(=O)[C@@H](NC(=O)[C@H](Cc1ccccc1)NC(=O)CNC(=O)CNC(=O)[C@@H](N)Cc1ccccc1)[C@@H](C)O)C(=O)N[C@@H](C)C(=O)N[C@@H](CC(N)=O)C(=O)N[C@@H](CCC(N)=O)C(=O)O [N/OFQ, nociceptin/orphanin FQ]
[7]
  β-arrestin 2 Mu pEC50 (CL95%): inactive
[5]; % over basal fluorescence, CHO cells with human Mu and Gαqi5
  Mu Emax ± SEM: Inactive
[5]; CHO cells with human Mu and Gαqi5, Fluo-4 AM, 37°C
  Mu pEC50 (CL95%): Inactive

## C=C[C@@]1(C)CC(=O)[C@]2(O)[C@@]3(C)[C@@H](O)CCC(C)(C)[C@@H]3[C@H](O)[C@H](OC(C)=O)[C@@]2(C)O1 [forskolin]
[8]
  increase in cAMP production compared to basal, CHOhMu: 24.3 (±1.79) fold
[9]
  increase in cAMP production compared to basal, CHOhNOP: 21.23 (±3.86) fold

## CN1CC[C@]23c4c5ccc(O)c4O[C@H]2[C@@H](O)C=C[C@H]3[C@H]1C5 [morphine]
[10]
  time to tolerance: 11 days

## C=CCN1CC[C@]23c4c5ccc(O)c4O[C@H]2C(=O)CC[C@@]3(O)[C@H]1C5 [naloxone, Naloxone]
[11]; [12]
  Kb: 28.8 nM
[11]; read-out: antagonist potency pKb against dermorphin (converted), antagonist 15 minutes before agonist curve, from rightward shift
  Kb: 2.69 nM
[11]; antagonist 100 nM, 15 minutes before agonist curve, from rightward shift
  antagonist potency pKb against N/OFQ: does not affect the inhibitory action of N/OFQ

## Cc1cccc2c1CC[C@H](CN1CCC(c3c(Cl)cccc3Cl)CC1)C[C@@H]2O [SB-612111]
[11]; antagonist 100 nM, 15 minutes before agonist curve, from rightward shift, read-out: antagonist potency pKb against N/OFQ (converted)
  Kb: 4.37 nM
[11]; [12]
  Kb: 85.1 nM
